Data as given in PMC11312998, “Molecular Pro-Apoptotic Activities of Flavanone Derivatives in Cyclodextrin Complexes: New Implications for Anticancer Therapy” (International Journal of Molecular Sciences, 2024).
Converted amounts (≈) assume the structure as drawn.

What was measured:
HCC38 = assay: Superoxide anion generation, DHE probe; type: cell-based, human; conditions: IC50 concentration, 24 h
Experimental: (§1) The level of superoxide anion (O2^•−) was determined by microplate spectrofluorimetry with dihydroethidium (hydroethidine, DHE) (Life Technologies, Carlsbad, CA, USA), which is the most commonly used fluorogenic probe for monitoring the intracellular production of superoxide anion O2^•− [41]. […] Thanks to this shift, DHE can be used as a sensitive probe for cellular ROS. The reaction between superoxide and DHE generates a highly specific red fluorescent product, 2-hydroxyethidium (2-OH-E^+).
(§2) The cells were seeded in black 96-well fluorometric microplates at a density of 10 × 10^3 cells per well. […] After incubation, the medium was removed, the cell monolayer in the wells was washed twice with HBSS (140 mM NaCl, 5 mM KCl, 0.8 mM MgCl2, 1.8 mM CaCl2, 1 mM Na2HPO4, 10 mM HEPES and 1% glucose) and 50 μL of DHE solution in HBSS was added to each well (final probe concentration 5 μmol/L). Cells were incubated with the probe for 30 min in the dark in an incubator (37 °C), and then fluorescence was measured. The measurement was performed at the following excitation and fluorescence emission wavelengths: λex = 498 nm/λem = 582 nm. Fluorescence measurements were made on a Perkin-Elmer LS-5B spectrofluorometer (MA, USA). Fluorescence intensity values for control cells were arbitrarily set as 100%. The results are presented as percentages of control cell values, calculated relative to the fluorescence intensity of the controls (100%): sample fluorescence was calculated as Δf in relation to the controls.

Hec-1-A = assay: Superoxide anion generation, DHE probe; type: cell-based, human; conditions: IC50 concentration, 24 h
Experimental: as §1, §2

RBCs = assay: Red blood cells lysis assay; type: cell-based, human; conditions: 24 h
Experimental: The experiments on human blood were performed in accordance with Polish national guidelines, and the study protocols were approved by the Bioethics Committee of the Medical University of Lodz, Poland: approval no (RNN/104/20/KE). The blood samples were obtained from healthy donors at the Blood Donation Centre in Lodz. The procedure for […] for erythrotoxicity studies is given in a previous paper. The influence of the synthesized compounds, together with a reference compound on RBC membrane integrity, was performed by lysis assay, described elsewhere. Briefly, 2% RBC suspension in 0.9% NaCl was incubated at 37 °C for 24 h with the tested compounds at concentrations of 100 µmol/L, 50 µmol/L, 25 µmol/L, 10 µmol/L and 1 µmol/L. The samples were centrifuged at 3000 rpm for 10 min, and the absorbance of the supernatant was measured at 550 nm. […] A sample containing saline solution represented the spontaneous hemolysis of RBCs (control). The experiments were conducted using at least three different biological materials (n = 3). […] Additionally, erythrocyte morphology was evaluated using a phase contrast Opta-Tech inverted microscope at 400× magnification.

[1] = test system: intrinsic coagulation pathway; assay: Activated partial thromboplastin time (APTT); type: biochemical, human; conditions: 1–100 µmol/L; values did not exceed the reference range
Experimental: Basic coagulation parameters were determined using Bio-Ksel reagents (Grudziądz, Poland): APTT reagent, calcium chloride, Bio-Ksel PT plus reagent (tromboplastin and solvent) and thrombin (3.0 UNIH/mL) for TT experiments. The methods were calibrated and the coefficient of variation (PT, APTT, TT experiments) was calculated using a calibrator (Bio-Ksel, Grudziadz, Poland), normal plasma (Bio-Ksel, Grudziądz, Poland) and water for injection (Polpharma, Gdańsk, Poland).
The experiments were conducted in multiplicates, and their results are presented as mean ± standard deviation (SD). Control samples consisting of distilled water and methanol were tested. All methods were validated using Bio-Ksel normal plasma, which was dissolved in water for injection (Polpharma, Gdańsk, Poland). The reference values for each test are as follows: PT: 9.7–13.8 s; INR: 0.9–1.2; APTT: 28.2–42.3 s; TT: 11.0–16.5 s for 3.0 UNIH/mL of thrombin.

[2] = Isothermal titration calorimetry (ITC) of inclusion complex formation; type: physicochemical; conditions: DMSO, 25 °C
Experimental: Measurements were carried out using a MicroCal VP-ITC100 microcalorimeter equipped with a 1400 μL measurement cell. All titrations were carried out under isothermal conditions at 25 degrees C in DMSO solution, which was used as a solvent. The mixing speed during the measurements was 351 rpm. The 0.2 mM solution of the ligand (3, 3a and 5) located in the measurement cell was titrated with the cyclodextrin solution located in the syringe. Each measurement consisted of 50 injections of cyclodextrin with a volume of 5 uL and a concentration of 5 mM. The interval between individual injections was 300 s. The effect of direct interaction of the ligand with CD was calculated by subtracting the thermal effects of diluting 5 mM cyclodextrin in a pure solvent. The dilution effect of the 0.2 mM ligand solution was negligible. The results obtained were processed in the MicroCall Origin 7 software. Using a single active site model (ITC Tutorial Guide), the stability constant K of the resulting complex, its stoichiometry n and thermodynamic parameters that describe the ongoing process were determined, viz., enthalpy (ΔH), Gibbs free energy (ΔG) and entropy (ΔS).

[3] = Water solubility by UV–Vis spectrophotometry (phase solubility with cyclodextrins); type: physicochemical; conditions: 25 °C, thermodynamic from solid, 298.15 K, without cyclodextrin, read-out: Solubility in H2O
Experimental: Spectrophotometric measurements were performed using a SPECORD 50 single-beam UV–Vis spectrophotometer (Analyst Jena, Thuringia, Germany). The calibration lines of the compounds tested were determined for the concentration range of 3.0 × 10^−6 M to 1 × 10^−4 M (Figure 21). The molar extinction coefficients for 3, 3a, and 5 were determined experimentally in an aqueous ethanol solution; the relevant maximum wavelengths are presented in Table 9. The influence of α-cyclodextrins, β-cyclodextrins and HP-β-cyclodextrins on the solubility of the tested ligands in water was evaluated in three measurement series. Briefly, excess ligand was introduced into closed Eppendorff tubes containing α-CD, β-CD or HP-β-CD solutions, at concentrations ranging from 1 to 90 mM for α-CD and HP-β-CD and from 1 to 15 mM for β-CD. The test tubes were stored for 10 days at a temperature of 298.15 K until equilibrium was achieved. After this time, the solutions were centrifuged using a Microcentrifuge MPW-55 at 13,000 rpm for five minutes. For testing, a clear solution was taken from above the sediment and diluted appropriately so that the spectrum was within the operating range of the spectrophotometer.

[4] = concentration range of 1–25 µmol/L
[5] = concentrations of 50 µmol/L and 100 µmol/L

Compound	impact on % hemolysis (in words) (RBCs; [4])	impact on % hemolysis (in words) (RBCs; [5])	APTT time (in words) [1]	K (formation constant) ([2]; HP-β-cyclodextrin)	n (stoichiometry) ([2]; HP-β-cyclodextrin)	ΔG ([2]; HP-β-cyclodextrin)	ΔH ([2]; HP-β-cyclodextrin)	ΔS ([2]; HP-β-cyclodextrin)	K (formation constant) ([2]; α-cyclodextrin)	n (stoichiometry) ([2]; α-cyclodextrin)	ΔG ([2]; α-cyclodextrin)	ΔH ([2]; α-cyclodextrin)	ΔS ([2]; α-cyclodextrin)	K (formation constant) ([2]; β-cyclodextrin)	n (stoichiometry) ([2]; β-cyclodextrin)	ΔH ([2]; β-cyclodextrin)	ΔS ([2]; β-cyclodextrin)	solubility at 10 days [3]	other results
O=C1/C(=C/c2ccccc2)COc2ccccc21 [Compound 1]																			increase in superoxide anion / ROS relative to control (DHE probe) (HCC38): approximately 20%
COc1cccc(/C=C2/C(=O)c3ccccc3OC2c2ccccc2)c1 (stereo not drawn) [Compound 3]	did not show a statistically significant impact	statistically significant increase in % hemolysis	mild, statistically significant prolongation of APTT time	6.88 × 10^3 ± 430	1.03 ± 0.10	−21,902.2 J mol^−1	-0.235 ± 0.0191 kcal/mol	70.2 J mol^−1K^−1	2.30 × 10^3 ± 180	0.90 ± 0.13	−19,188.6 J mol^−1	-0.092 ± 0.011 kcal/mol	63.1 J mol^−1K^−1	3.68 × 10^3 ± 230	0.99 ± 0.11	-0.2476 ± 0.021 kcal/mol	64.8 J mol^−1K^−1	1.29 µM (≈ 0.442 µg/mL)	rise of superoxide anion level compared to the control (DHE probe) (Hec-1-A): approximately 20%; ΔG ([2]; β-cyclodextrin): −20,353.7 J mol^−1
O=C1/C(=C/c2ccccc2)C(c2ccccc2)Oc2ccccc21 (stereo not drawn) [Compound 5]	did not show a statistically significant impact	statistically significant increase in % hemolysis	mild, statistically significant prolongation of APTT time	5.12 × 10^3 ± 410	0.93 ± 0.10	−21,172.4 J mol^−1	-0.119 ± 0.0151 kcal/mol	69.3 J mol^−1K^−1	1.39 × 10^3 ± 120	0.83 ± 0.17	−17,940.2 J mol^−1	-0.049 ± 0.00741 kcal/mol	59.5 J mol^−1K^−1	2.32 × 10^3 ± 220	0.93 ± 0.11	-0.0411 ± 0.012 kcal/mol	62.5 J mol^−1K^−1	1.5 µM (≈ 0.469 µg/mL)	
